Laboratory results reported in patent publication US10501511B2, “Low molecular polypeptide for preventing and treating inflammation and use thereof” (SHANGHAI FIRST PEOPLE'S HOSPITAL, priority 2013, dated 2019).
Where a SMILES comes first, the peptide text is derived from it.

Tests used:
[1] = tested on: TNF-α in LPS-induced RAW264.7 cells; assay: TNF-α concentration (ELISA) in supernatant of LPS-induced RAW264.7 cells; assay type: cell-based, murine; details: for concentration of TNF-α in cell supernatant: LPS group 1333.00±476.59, control 561.00±25.65; for TNF-α: Samples 10 μM, Control (LPS) 1425.60
Procedure: (§1) 1.1 Experimental cell strain and Materials: murine peritoneal macrophage cell strain RAW264.7 were purchased from the Cell Bank of Shanghai Institutes for Biological Sciences, CAS; DMEM high glucose medium was purchased from GIBCO; mouse tumor necrosis factor-α (TNF-α) and interleukin-6 (IL-6) enzyme-linked immunosorbent assay (ELISA) kits were purchased from R & D company, US.
(§2) 1.2 Model establishment and Intervention test: RAW264.7 cells were cultured in high glucose DMEM medium containing 10% fetal bovine serum (FBS), and 100 U/ml double antibiotics of penicillin and streptomycin, and placed in 37° C., 5% CO2 incubator for amplification. Cells at Logarithmic growth phase were seeded in 24-well plates at 2.5×10^5/ml. When adhered cells grew well and were cultured to 80-90% of confluence, the medium was replaced by a DMEM medium without 10% FBS for serum-starved culture for 24 hours. RAW264.7 cells were randomly divided into control group, LPS group, LPS+H-RN group with sextuplicate wells for each group. LPS group and LPS+H-RN group were added with 500 μl of different concentrations of H-RN (1, 10, 100 μM) and LPS (100 ng/ml) and the control group was added with an equal volume of DMEM medium, each group was placed in 37° C., 5% CO2 incubator and routinely cultured. Cell supernatants were collected after 24 hours.
(§3) The experiment data was shown as x±s. SPSS 11.0 statistical package was used for statistic analysis and one-way ANOVA was used to compare TNF-α and IL-6 level in supernatant between the groups, and P<0.05 represents statistical significance.

[2] = tested on: Rat Endotoxin-induced Uveitis (EIU) model; assay: Count of inflammatory cell infiltration in aqueous humor of EIU rats; assay type: in vivo, Wistar rats; details: 24 hours, LPS group 164.20±142.7
Procedure: (§4) 1.1 Experiment animals and materials: healthy male Wistar rats, 140-180 g, 8-10 weeks old, were purchased from Animal Center of Chinese Academy of Medical Sciences; Lipopolysaccharides (LPS), derived from Escherichia coli, was purchased from SIGMA-Aldrich Corporation (U.S.A).
(§5) 1.2 Model establishment and Intervention test: Wistar rats were randomly divided into six groups (9-15 rats for each group) which were LPS group, LPS+1 μg/μl H-RN intervention group, LPS+5 μg/μl H-RN group, LPS+10 μg/μl H-RN group, LPS+10 μg/μl DXM and normal control group (PBS) respectively. 200 μg LPS (2 mg/ml, 100 μl, dissolved in sterile saline) was subcutaneously injected into right foot pad of rats, thereby establishing EIU model. The normal control group was subcutaneously injected with 100 μl sterile saline into the right foot pad of rats. In LPS group, LPS+H-RN (1, 5, 10 μg/μl) intervention group and LPS+10 μg/μl DXM group, each rat was subcutaneously injected with 200 μg LPS into the right foot pad, meanwhile, PBS 10 μl, H-RN PBS solution (1, 5 and 10 μg/μl) 10 μl and DXM PBS solution (10 μg/μl) 10 μl were injected into vitreous chamber respectively.
1.4 Quantitative count for inflammatory cell infiltration in rat aqueous humor: 24 hours after LPS and drug intervention, rats were sacrificed in excess of anesthesia. Under an operating microscope, aqueous humor (30-40 μl/binoculus) was collected by anterior chamber paracentesis with a 30-gauge microsyringe at 1 mm from rat corneal limbus. Aqueous humor samples were diluted with an equal amount of trypan blue dye liquid. Cells in aqueous humor were counted using a hemocytometer under light microscopy by two independent technicians for each region (equivalent with 0.1 μl). The average of the four regions was the number of cells contained in 1 μl aqueous humor.
(§6) The experiment data was shown as x±s. A one-way ANOVA was used to compare the change of inflammatory cell infiltration of rats in each group. P<0.05 represents statistical significance.

[3] = tested on: IL-6 in LPS-induced RAW264.7 cells; assay: IL-6 concentration (ELISA) in supernatant of LPS-induced RAW264.7 cells; assay type: cell-based, murine; details: for concentration of IL-6 in cell supernatant: LPS group 2650.00±106.07, control 213.00±15.56; for IL-6: Samples 10 μM, Control (LPS) 2713.95
Procedure: as §1, §2, §3

RAW264.7 cells = assay: Cytotoxicity assay (MTS colorimetric method), relative growth rate; assay type: cell-based, murine; details: concentration range of 0.1 μm-1 mM
Procedure: (§7) 1.1 Experimental cell strain and Materials: murine peritoneal macrophage cell line RAW264.7 were purchased from the Cell Bank of Shanghai Institutes for Biological Sciences, CAS; DMEM high glucose medium were purchased from GIBCO; MTS were purchased from Promega, prepared into 300 mmol/L in PBS (pH 6.0) and stored at −20° C. in darkness.
(§8) 1.2 Model establishment and Intervention test: RAW264.7 cells were cultured in high glucose DMEM medium containing 10% fetal bovine serum (FBS), and 100 U/ml double antibiotics of penicillin and streptomycin, and placed in 37° C., 5% CO2 incubator for amplification. Cells at logarithmic growth phase were seeded in 96-well plates at 1×10^5/ml. When adhered cells grew well and were cultured to 80-90% of confluence, the medium was replaced by a DMEM medium without 10% FBS for serum-starved culture for 24 hours.
(§9) 1.3 Cytotoxicity assay (MTS colorimetric method): After the cells were cultured for 24 hours in serum starvation, different concentrations of H-RN (0.1, 1, 10 μM, 100 μM, 1 mM, 100 μl) were added into each well with sextuplicate wells for each concentration. The blank control group was added with an equal volume of DMEM medium. The plates were placed in 37° C., 5% CO2 incubator and cultured for 24 hours, added with 20 μl of MTS solution to each well and cultured for another 4 hours. The absorbance of each well was measured by an enzyme-linked immunosorbent detector in 490 nm, and the relative growth rate (RGR) of cells was calculated. Formula: RGR=A value of experimental group/A value of control group×100%.
(§10) 1.5. Statistic analysis: The experiment data was shown as x±s. SPSS 11.0 statistical package was used for statistic analysis and one-way ANOVA was used to compare RGR of cells between the groups, and P<0.05 represents statistical significance.

[4] = as above; assay type: cell-based, murine; details: mouse, RAW264.7 macrophage cells, 24 hours, MTS, blank 100.05±3.95%, read-out: relative growth rate (RGR) of cells
Procedure: as §7, §8, §9, §10

[5] = tested on: Rat Endotoxin-induced Uveitis (EIU) model; assay: Clinical manifestation score in rat endotoxin-induced uveitis (EIU) model; assay type: in vivo, Wistar rats; details: 10 μl into vitreous chamber, 24 hours, score 0-4
Procedure: as §4, §5
1.3 Qualitative observation for Clinical manifestations of EIU rats: 24 hours after drug and LPS intervention, rats were observed by biological microscope. The clinical manifestations of rats were evaluated and scored by an independent observer according to the method of Behar-Cohen et al. The severity of EIU was represented by 0-4 scores: 0: no inflammation; 1: mild dilation in conjunctiva and iris vessel; 2: moderate dilation in conjunctiva and iris vessel with anterior chamber flare; 3: severe iris hyperemia with severe anterior chamber flare; 4: anterior chamber cellulose-like exudation, posterior synechia, miosis and hypopyon in addition to 3 points.
as §6

[6] = Water solubility of synthesized polypeptide powder; assay type: physicochemical; details: white powder
[7] = 1 μM peptide + LPS 100 ng/ml, 24 hours, P>0.05
[8] = 10 μM peptide + LPS 100 ng/ml, 24 hours
[9] = 100 μM peptide + LPS 100 ng/ml, 24 hours
[10] = LPS + 10 μg/μl peptide intravitreal
[11] = LPS + 10 μg/μl peptide, LPS group 3.56±0.51

Compound: N=C(N)NCCC[C@H](NC(=O)[C@@H]1CCCN1C(=O)[C@H](CC(N)=O)NC(=O)[C@@H](N)CCCNC(=N)N)C(=O)NCC(=O)N[C@@H](CCC(=O)O)C(=O)N[C@@H](CCC(=O)O)C(=O)NCC(=O)NCC(=O)N1CCC[C@H]1C(=O)N[C@@H](Cc1c[nH]c2ccccc12)C(=O)O [H-RN, RNPRGEEGGPW] (H-RNPRGEEGGPW-OH; N-terminus assumed)
- TNF-α in cell supernatant compared with LPS group [1, 7]: no significant difference
- concentration of TNF-α in cell supernatant [1, 8]: 737.00 ± 155.56 pg/mL
- concentration of TNF-α in cell supernatant [1, 9]: 718.00 ± 79.19 pg/mL
- count of inflammatory cells in aqueous humor ([2]; LPS + 1 μg/μl peptide intravitreal): 49.14±40.84 ×10^5 cells/ml
- count of inflammatory cells in aqueous humor ([2]; LPS + 5 μg/μl peptide intravitreal): 40.40±31.34 ×10^5 cells/ml
- count of inflammatory cells in aqueous humor [2, 10]: 37.35±21.44 ×10^5 cells/ml
- IL-6 in cell supernatant compared with LPS group [3, 7]: no significant difference
- concentration of IL-6 in cell supernatant [3, 8]: 1385.00 ± 101.54 pg/mL
- concentration of IL-6 in cell supernatant [3, 9]: 1355.00 ± 134.35 pg/mL
- toxic effects on cells (RAW264.7 cells): no significant toxic effects
- viability at 24 h, 0.1 µM ([4]; 0.1 μM): 96.9 ± 3.64%
- viability at 24 h, 1 µM ([4]; 1 μM): 100 ± 2.67%
- viability at 24 h, 10 µM ([4]; 10 μM): 98.3 ± 3.91%
- viability at 24 h, 100 µM ([4]; 100 μM): 101 ± 4%
- viability at 24 h, 1000 µM ([4]; 1 mM): 95.8 ± 4.92%
- EIU clinical score ([5]; LPS + 1 μg/μl H-RN, LPS group 3.56±0.51, normal control 0.50±0.54): 2.42±0.53
- EIU clinical score ([5]; LPS + 5 μg/μl peptide, LPS group 3.56±0.51): 2.12±0.64
- EIU clinical score [5, 11]: 1.92±0.27
- water solubility [6]: good water solubility

Compound: GPERWRGPNGE [H-GP, reference compound]
- TNF-α in cell supernatant compared with LPS group ([1]; 100 μM peptide, p>0.05): no significant difference
- count of inflammatory cells in aqueous humor [2, 10]: 134.66±98.23 ×10^5 cells/ml
- IL-6 in cell supernatant compared with LPS group ([3]; 100 μM peptide, p>0.05): no significant difference
- EIU clinical score [5, 11]: 3.32±0.61

Compound: KQPRGEEGGPW [Derived polypeptide 2, polypeptide derived from H-RN]
- TNF-α [1]: 701.63 pg/mL
- IL-6 [3]: 1356.46 pg/mL

Compound: NPRGEEGGP [Derived polypeptide 5, polypeptide derived from H-RN]
- TNF-α [1]: 745.70 pg/mL
- IL-6 [3]: 1395.34 pg/mL

Compound: QNPRGDEPGPW [Derived polypeptide 4, polypeptide derived from H-RN]
- TNF-α [1]: 765.92 pg/mL
- IL-6 [3]: 1411.87 pg/mL

Compound: RNPKGEEGGPW [Derived polypeptide 1, polypeptide derived from H-RN]
- TNF-α [1]: 724.98 pg/mL
- IL-6 [3]: 1365.29 pg/mL

Compound: RNPRGEEGGPWCF [Derived polypeptide 6, polypeptide derived from H-RN]
- TNF-α [1]: 696.77 pg/mL
- IL-6 [3]: 1369.41 pg/mL

Compound: RNPRPEEGGAY [Derived polypeptide 3, polypeptide derived from H-RN]
- TNF-α [1]: 792.31 pg/mL
- IL-6 [3]: 1402.54 pg/mL
